Broadly, the IC50 is the concentration that gives 50% inhibition. A low value points to greater potency in that assay.

Consider 19 compounds from US20240360104A1, “TRANSCRIPTIONAL ENHANCED ASSOCIATED DOMAIN (TEAD) TRANSCRIPTION FACTOR INHIBITORS AND USES THEREOF” (Dana-Farber Cancer Institute, Inc., priority 2021, published 2024).

One assay deals with NCI-H226 cells. Put plainly: Antiproliferation assay on NCI-H226 cells (CellTiter-Glo, 5-day treatment). The format is cell-based. The settings on record: Homo sapiens, 120 h, 200 cells/well, 384 plate. On the procedure: Example 1. Antiproliferation Assay on NCI-H226 Cells (200 Cells/Well, 384 Plate, 5-Day Treatment)
The compounds of the disclosure were tested for their ability in an antiproliferation assay using NCI-H226 cells (FIG. 6 and FIG. 7). The following table summarizes the IC50 values calculated from the graph of the percent inhibition versus the log of the concentration of representative compounds of the disclosure.
For 2D adherent cell viability experiment, the cells were seeded at 384-well plate (Corning, no. 3570) at the density of 200 cells/well (FIGS. 1-7). The next day, compounds were added using Janus workstation (PerkinElmer). After 5 days treatment, the cell viability was measured by CellTiter-Glo kit (Promega, no. G7570) as the manufacturer recommended.

The subject of a further assay is H2052 cells. The assay is described as follows: Antiproliferation assay using H2052 cells. The settings on record: Homo sapiens, NCI-H2052; H2052 cells (FIG. 2). Format: cell-based.

In the assay with NCI-H226 cells, `C=CC(=O)N1C[C@@H](n2cc(C3CCN(C)CC3)nn2)[C@H](OCc2ccc(C(F)(F)F)cc2)C1` (relative stereo) [II-19, 1-(trans-3-(4-(1-methylpiperidin-4-yl)-1H-1,2,3-triazol-1-yl)-4-(4-(trifluoromethyl)benzyloxy)pyrrolidin-1-yl)prop-2-en-1-one] came in with an IC50 of 193 nM.

For the compound `C=CC(=O)N1C[C@@H](NS(=O)(=O)c2c(C)noc2C)[C@H](OCc2ccc(C(F)(F)F)cc2)C1` (relative stereo) [Compound V-5, N-(trans-1-acryloyl-4-(4-(trifluoromethyl)benzyloxy)pyrrolidin-3-yl)-3,5-dimethylisoxazole-4-sulfonamide], the IC50 with NCI-H226 cells is 954 nM. This IC50 is about 4.9-fold higher than that of the compound before.

With `C=CC(=O)N1C[C@@H](n2cc(-c3cncc(N)c3)nn2)[C@H](OCc2ccc(C(F)(F)F)cc2)C1` (relative stereo) [II-5, 1-(trans-3-(4-(5-aminopyridin-3-yl)-1H-1,2,3-triazol-1-yl)-4-(4-(trifluoromethyl)benzyloxy)pyrrolidin-1-yl)prop-2-en-1-one], half-maximal inhibition in the assay on NCI-H226 cells (IC50) was put at 172 nM.

With `C=CC(=O)N1C[C@@H](n2ncc(-c3cnn(C)c3)cc2=O)[C@H](OCc2ccc(C(F)(F)F)cc2)C1` (relative stereo) [VI-3, 2-(trans-1-acryloyl-4-((4-(trifluoromethyl)benzyl)oxy)pyrrolidin-3-yl)-5-(1-methyl-1H-pyrazol-4-yl)pyridazin-3(2H)-one], the IC50 in the assay on NCI-H226 cells is 41 nM.

Take `C=CC(=O)N1C[C@@H](n2ccc(C(=O)NC)n2)[C@H](OCc2ccc(C(F)(F)F)cc2)C1` (relative stereo) [IV-5, 1-(trans-1-acryloyl-4-(4-(trifluoromethyl)benzyloxy)pyrrolidin-3-yl)-N-methyl-1H-pyrazole-3-carboxamide]: in the assay on NCI-H226 cells, the IC50 turned out to be 490 nM.

`C=CC(=O)N1C[C@@H](n2nc(-c3cnn(C)c3)ccc2=O)[C@H](OCc2ccc(C(F)(F)F)cc2)C1` (relative stereo) [VI-2, 2-(trans-1-acryloyl-4-(4-(trifluoromethyl)benzyloxy)pyrrolidin-3-yl)-6-(1-methyl-1H-pyrazol-4-yl)pyridazin-3(2H)-one]: half-maximal inhibition with NCI-H226 cells (IC50) required 99 nM. Against the preceding compound, the IC50 is about 4.9-fold lower.

Consider `C=CC(=O)N1C[C@@H](NS(=O)(=O)c2cccnc2)[C@H](OCc2ccc(C(F)(F)F)cc2)C1` [Compound V-1], for which, in the assay with NCI-H226 cells, the midpoint of inhibition, the IC50, lay at 380 nM.

For `C=CC(=O)N1C[C@@H](n2ccnn2)[C@H](OCc2ccc(C(F)(F)F)cc2)C1` [II-8], the IC50 was 142 nM in the assay on H2052 cells and 78 nM with NCI-H226 cells.

`C=CC(=O)N1C[C@@H](NS(=O)(=O)c2cccc(C#N)c2)[C@H](OCc2ccc(C(F)(F)F)cc2)C1` (relative stereo) [Compound V-6, N-(trans-1-acryloyl-4-(4-(trifluoromethyl)benzyloxy)pyrrolidin-3-yl)-3-cyanobenzenesulfonamide] came in with an IC50 in the assay on NCI-H226 cells of 543 nM.

In turn, `C=CC(=O)N1C[C@@H](n2cc(-c3cccc(C#N)c3)nn2)[C@H](OCc2ccc(C(F)(F)F)cc2)C1` (relative stereo) [II-7, 3-(1-(trans-1-acryloyl-4-(4-(trifluoromethyl)benzyloxy)pyrrolidin-3-yl)-1H-1,2,3-triazol-4-yl)benzonitrile] registered an IC50 in the assay with NCI-H226 cells of 377 nM.

`C=C(F)C(=O)N1C[C@@H](Nc2ncccn2)[C@H](OCc2ccc(C(F)(F)F)cc2)C1` [Compound I-9, 2-fluoro-1-((3R, 4R)-3-(pyrimidin-2-ylamino)-4-(4-(trifluoromethyl)benzyloxy)pyrrolidin-1-yl)prop-2-en-1-one] returned an IC50 with NCI-H226 cells of 23 nM.

Regarding `C=CC(=O)N1C[C@@H](OCc2ccc(C(F)(F)F)cc2)[C@H](c2cccc(S(C)(=O)=O)c2)C1` [VII-2], the IC50 in the assay with NCI-H226 cells was found to be 256 nM. Against the preceding compound, the IC50 is about 11-fold higher.

The compound `C=CC(=O)N1C[C@@H](Nc2ccncn2)[C@H](OCc2ccc(C(F)(F)F)cc2)C1` (relative stereo) [VII-11, 1-(trans-3-(pyrimidin-4-ylamino)-4-(4-(trifluoromethyl)benzyloxy)pyrrolidin-1-yl)prop-2-en-1-one] had an IC50 in the assay on NCI-H226 cells of 189 nM. The IC50 values of the last two compounds are within 1.5-fold of each other.

For `C#Cc1ccc(CO[C@@H]2CN(C(=O)C=C)C[C@H]2n2cc(-c3cccnc3)nn2)cc1` [III-6, 1-((3R,4R)-3-(4-ethynylbenzyloxy)-4-(4-(pyridin-3-yl)-1H-1,2,3-triazol-1-yl)pyrrolidin-1-yl)prop-2-en-1-one], the IC50 with NCI-H226 cells was determined as 256 nM.

On to `C=CC(=O)N1C[C@@H](n2cc(C(N)=O)nn2)[C@H](OCc2ccc(C(F)(F)F)cc2)C1` (relative stereo) [II-1, 1-(trans-1-acryloyl-4-(4-(trifluoromethyl)benzyloxy)pyrrolidin-3-yl)-1H-1,2,3-triazole-4-carboxamide], for which the IC50 with NCI-H226 cells was 580 nM. This IC50 is about 2.3-fold higher than that of the compound before.

With `C=CC(=O)N1C[C@@H](OCc2ccc(C(F)(F)F)cc2)[C@H](c2ccc(S(C)(=O)=O)cc2)C1` (relative stereo) [VII-1, 1-(trans-3-(4-(methylsulfonyl)phenyl)-4-(4-(trifluoromethyl)benzyloxy)pyrrolidin-1-yl)prop-2-en-1-one], half-maximal inhibition in the assay on NCI-H226 cells (IC50) required 168 nM.

`C=CC(=O)N1C[C@@H](n2cc(-c3ccc(N)nc3)nn2)[C@H](OCc2ccc(C(F)(F)F)cc2)C1` (relative stereo) [II-6, 1-(trans-3-(4-(6-aminopyridin-3-yl)-1H-1,2,3-triazol-1-yl)-4-(4-(trifluoromethyl)benzyloxy)pyrrolidin-1-yl)prop-2-en-1-one] had an IC50 in the assay with NCI-H226 cells of 112 nM. This IC50 is about 1.5-fold lower than that of the compound before.

In the assay on NCI-H226 cells, `C=CC(=O)N1C[C@@H](Nc2ncccn2)[C@H](OCc2ccc(C(F)(F)F)cc2)C1` (relative stereo) [Compound I-1, 1-(trans-3-(pyrimidin-2-ylamino)-4-(4-(trifluoromethyl)benzyloxy)pyrrolidin-1-yl)prop-2-en-1-one] gave an IC50 of 36 nM.

`C=CC(=O)N1C[C@@H](n2cc(C(=O)NC)nn2)[C@H](OCc2ccc(C(F)(F)F)cc2)C1` (relative stereo) [II-2, 1-(trans-1-acryloyl-4-(4-(trifluoromethyl)benzyloxy)pyrrolidin-3-yl)-N-methyl-1H-1,2,3-triazole-4-carboxamide] returned an IC50 in the assay with NCI-H226 cells of 461 nM.
